Experimental data from article PMC6178217 (JACC. Cardiovascular imaging, 2018).
Read-outs that look alike come from different tables or passages of the source.

Columns and labels:
[1] = molecular target: myocardial CB1-R (Mus musculus, UniProt P47746); experiment: [^11C]-OMAR dynamic micro-PET/CT, myocardial OMAR retention in mice; type: in vivo; conditions: for myocardial OMAR retention: median [range]
[2] = molecular target: myocardial CB1-R (Homo sapiens, UniProt P21554); experiment: [^11C]-OMAR PET/CT, myocardial retention index of OMAR in humans; type: in vivo; conditions: median (range)
[3] = median (range)
[4] = obese mice, intravenous, median (range)
[5] = tested on: CB1-R; conditions: cited from earlier work
[6] = molecular target: CB1-R (Mus musculus, UniProt P47746); experiment: Rimonabant blocking study of [^11C]-OMAR uptake in obese mice; type: in vivo
[7] = as reported in brain studies; cited from earlier work

myocardial CB1-R (Mus musculus, UniProt P47746), sequence (P47746 whole entry): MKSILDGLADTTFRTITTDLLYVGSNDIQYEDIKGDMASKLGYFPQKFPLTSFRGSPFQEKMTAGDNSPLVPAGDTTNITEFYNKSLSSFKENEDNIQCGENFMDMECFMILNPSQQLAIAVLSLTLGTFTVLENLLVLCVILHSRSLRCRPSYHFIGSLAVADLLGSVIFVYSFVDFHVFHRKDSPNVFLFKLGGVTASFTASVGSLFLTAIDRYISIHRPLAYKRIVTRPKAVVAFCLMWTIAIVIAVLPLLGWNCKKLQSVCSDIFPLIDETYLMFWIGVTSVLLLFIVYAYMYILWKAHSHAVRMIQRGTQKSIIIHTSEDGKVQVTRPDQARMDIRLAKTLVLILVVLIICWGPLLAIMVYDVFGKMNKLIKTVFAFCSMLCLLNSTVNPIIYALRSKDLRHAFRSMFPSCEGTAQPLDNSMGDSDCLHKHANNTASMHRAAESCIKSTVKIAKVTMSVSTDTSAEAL
CB1-R (Mus musculus, UniProt P47746), sequence (P47746 whole entry): as above
myocardial CB1-R (Homo sapiens, UniProt P21554), sequence (P21554 whole entry): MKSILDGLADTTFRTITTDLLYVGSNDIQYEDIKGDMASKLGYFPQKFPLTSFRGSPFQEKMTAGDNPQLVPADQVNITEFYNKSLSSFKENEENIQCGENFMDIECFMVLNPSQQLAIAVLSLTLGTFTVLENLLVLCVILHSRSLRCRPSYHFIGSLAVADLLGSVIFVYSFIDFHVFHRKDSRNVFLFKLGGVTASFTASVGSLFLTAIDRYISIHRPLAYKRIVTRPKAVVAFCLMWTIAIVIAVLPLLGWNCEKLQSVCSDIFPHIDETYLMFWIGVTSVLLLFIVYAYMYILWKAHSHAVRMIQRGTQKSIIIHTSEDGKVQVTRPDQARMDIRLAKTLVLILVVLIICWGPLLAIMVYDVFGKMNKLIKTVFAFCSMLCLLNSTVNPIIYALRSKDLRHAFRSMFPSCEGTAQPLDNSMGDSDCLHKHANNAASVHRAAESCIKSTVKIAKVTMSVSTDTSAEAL

SMILES: [11CH3]Oc1ccc(-c2c(C#N)c(C(=O)NN3CCCCC3)nn2-c2ccc(Cl)cc2Cl)cc1 [[^11C]-OMAR]
- fold higher [^11C]-OMAR retention in obese versus lean mice ([1]; heart, ob/ob vs lean control mice, micro-PET/CT): 8 fold
- myocardial OMAR retention ([1]; normal-weight mice): 0.13 %/min
- binding potential of [^11C]-OMAR to myocardial CB1-R ([1]; obese mice): 6.4
- myocardial OMAR retention ([1]; obese mice): 8.29 %/min
- OMAR retention (absolute left ventricular) ([2]; AOB (advanced obesity)): 5.68 (1.88–6.89) %/min
- OMAR retention (absolute left ventricular) ([2]; CON (normal-weight control subjects)): 0.47 (0.13–1.31) %/min
- DBP after [^11C]-OMAR injection ([3]; AOB): 71 (56–78) mm Hg
- HR after [^11C]-OMAR injection ([3]; AOB): 72 (65–84) beats/min
- MAP after [^11C]-OMAR injection ([3]; AOB): 93 (76–96) mm Hg
- RPP after [^11C]-OMAR injection ([3]; AOB): 9,588 (7,325–10,960) mm Hg/min
- SBP after [^11C]-OMAR injection ([3]; AOB): 133 (116–140) mm Hg
- DBP after [^11C]-OMAR injection ([3]; CON): 62 (60–68) mm Hg
- HR after [^11C]-OMAR injection ([3]; CON): 70 (61–77) beats/min
- MAP after [^11C]-OMAR injection ([3]; CON): 81 (75–97) mm Hg
- SBP after [^11C]-OMAR injection ([3]; CON): 120 (118–124) mm Hg
- [^11C]-OMAR uptake, Blood ([4]; 5 min): 1.19 (1.10–1.33) %ID/g Tissue
- [^11C]-OMAR uptake, Cerebellum ([4]; 5 min): 2.43 (1.72–2.74) %ID/g Tissue
- [^11C]-OMAR uptake, Heart ([4]; 5 min): 4.63 (4.00–5.23) %ID/g Tissue
- [^11C]-OMAR uptake, Blood ([4]; 10 min): 0.99 (0.91–1.19) %ID/g Tissue
- [^11C]-OMAR uptake, Cerebellum ([4]; 10 min): 2.32 (2.11–2.50) %ID/g Tissue
- [^11C]-OMAR uptake, Thalamus ([4]; 10 min): 1.62 (1.59–1.72) %ID/g Tissue
- [^11C]-OMAR uptake, Blood ([4]; 15 min): 0.99 (0.91–1.19) %ID/g Tissue
- [^11C]-OMAR uptake, Cerebellum ([4]; 15 min): 2.53 (2.43–2.55) %ID/g Tissue
- [^11C]-OMAR uptake, Thalamus ([4]; 15 min): 1.69 (1.59–1.72) %ID/g Tissue
- [^11C]-OMAR uptake, Blood ([4]; 30 min): 0.55 (0.39–0.65) %ID/g Tissue
- [^11C]-OMAR uptake, Cerebellum ([4]; 30 min): 2.11 (1.25–2.38) %ID/g Tissue
- [^11C]-OMAR uptake, Heart ([4]; 30 min): 2.14 (2.09–2.17) %ID/g Tissue
- [^11C]-OMAR uptake, Thalamus ([4]; 30 min): 1.21 (1.18–1.21) %ID/g Tissue
- [^11C]-OMAR uptake, Blood ([4]; 60 min): 0.46 (0.46–0.47) %ID/g Tissue
- [^11C]-OMAR uptake, Cerebellum ([4]; 60 min): 1.37 (1.25–1.51) %ID/g Tissue
- [^11C]-OMAR uptake, Heart ([4]; 60 min): 1.55 (1.48–1.61) %ID/g Tissue
- [^11C]-OMAR uptake, Thalamus ([4]; 60 min): 0.73 (0.58–0.77) %ID/g Tissue
- [^11C]-OMAR uptake, Blood ([4]; 90 min): 0.55 (0.51–0.68) %ID/g Tissue
- [^11C]-OMAR uptake, Cerebellum ([4]; 90 min): 1.11 (1.05–2.00) %ID/g Tissue
- [^11C]-OMAR uptake, Heart ([4]; 90 min): 1.40 (1.40–1.79) %ID/g Tissue
- [^11C]-OMAR uptake, Thalamus ([4]; 90 min): 0.55 (0.38–0.98) %ID/g Tissue
- blocking of [^11C]-OMAR uptake reported for brain studies ([5]; brain): about 75%
- binding potential in the brain ([5]; previous blocking studies in the brain): about 2
- [^11C]-OMAR uptake that could not be blocked ([6]; 5 mg/kg dose of rimonabant, heart): about 42%
- baseline-to-block ratio of myocardial [^11C]-OMAR uptake ([6]; myocardial blocking study): about 2.4
- binding potential ([6]; myocardial blocking study): > 1
- radioactivity related to unchanged [^11C]-OMAR [7]: at least 94%
